Experiments:
[1] = Retention time in rat liver microsomes treated with 50 uM pirfenidone incubated for 45 mins in presence of NADPH by LC-MS/MS analysis; format: ADME, Microsome; conditions: 0.75 h
[2] = Retention time in rat liver microsomes treated with 50 uM pirfenidone incubated for 45 mins in presence of NADPH and NAC by LC-MS/MS analysis; format: ADME, Microsome; conditions: 0.75 h
Cytochrome P450 3A4 [3] = target: T1, Cytochrome P450 3A4 (Homo sapiens, UniProt P08684); assay: Drug level assessed as human recombinant CYP3A4-mediated compound formation using 50 uM pirfenidone incubated for 45 mins in presence of NADPH and glutathione by LC-MS/MS analysis; format: ADME; conditions: recombinant enzyme, 0.75 h
T1 sequence (P08684 whole entry): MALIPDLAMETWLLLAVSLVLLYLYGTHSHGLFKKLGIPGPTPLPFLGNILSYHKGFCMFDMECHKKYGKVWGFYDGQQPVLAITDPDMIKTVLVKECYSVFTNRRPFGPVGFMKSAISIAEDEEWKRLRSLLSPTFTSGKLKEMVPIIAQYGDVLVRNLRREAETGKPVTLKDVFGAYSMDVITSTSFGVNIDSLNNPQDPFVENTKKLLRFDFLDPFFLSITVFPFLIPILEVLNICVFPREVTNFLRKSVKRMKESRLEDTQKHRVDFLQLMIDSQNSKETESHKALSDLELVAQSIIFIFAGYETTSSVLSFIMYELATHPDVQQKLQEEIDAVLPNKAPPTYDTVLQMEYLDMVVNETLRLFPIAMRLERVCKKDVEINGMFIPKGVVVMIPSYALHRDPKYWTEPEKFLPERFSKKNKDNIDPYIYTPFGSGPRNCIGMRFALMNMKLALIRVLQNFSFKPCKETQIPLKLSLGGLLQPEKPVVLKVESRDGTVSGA

Cytochrome P450 3A5 [4] = target: T2, Cytochrome P450 3A5 (Homo sapiens, UniProt P20815); assay: Drug level assessed as human recombinant CYP3A5-mediated compound formation using 50 uM pirfenidone incubated for 45 mins in presence of NADPH and glutathione by LC-MS/MS analysis; format: ADME; conditions: recombinant enzyme, 0.75 h
T2 sequence (P20815 whole entry): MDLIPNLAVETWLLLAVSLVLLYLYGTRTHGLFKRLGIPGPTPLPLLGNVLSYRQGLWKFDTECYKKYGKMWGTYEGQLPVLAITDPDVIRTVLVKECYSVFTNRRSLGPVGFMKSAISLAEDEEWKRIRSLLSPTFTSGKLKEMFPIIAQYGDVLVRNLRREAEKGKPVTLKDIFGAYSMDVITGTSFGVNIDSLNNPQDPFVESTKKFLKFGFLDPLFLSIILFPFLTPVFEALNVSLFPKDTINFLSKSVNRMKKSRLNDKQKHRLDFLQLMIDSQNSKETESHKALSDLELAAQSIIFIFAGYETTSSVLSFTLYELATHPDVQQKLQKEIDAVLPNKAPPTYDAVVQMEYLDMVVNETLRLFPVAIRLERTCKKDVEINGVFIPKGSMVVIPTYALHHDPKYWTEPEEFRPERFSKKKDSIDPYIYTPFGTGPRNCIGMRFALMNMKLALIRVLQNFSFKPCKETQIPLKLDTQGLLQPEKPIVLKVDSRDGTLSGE

[5] = Drug metabolism in rat liver assessed as formation of GSH-conjugate at 100 mg/kg, ip measured up to 3 hrs by LC-MS/MS analysis; format: ADME, organism-based; conditions: in vivo
[6] = Drug metabolism in rat liver assessed as formation of GSH-conjugate by measuring hepatic protein adduction formation at 50 to 200 mg/kg, ip measured after 1 hr by LC-MS/MS analysis; format: ADME, organism-based; conditions: in vivo
Cytochrome P450 2A6 = target: T3, Cytochrome P450 2A6 (Homo sapiens, UniProt P11509); assay: Drug metabolism assessed as human recombinant CYP2A6-mediated compound activation using 50 uM pirfenidone incubated for 45 mins in presence of NADPH and glutathione by LC-MS/MS analysis; format: ADME; conditions: recombinant enzyme, 0.75 h
T3 sequence (P11509 whole entry): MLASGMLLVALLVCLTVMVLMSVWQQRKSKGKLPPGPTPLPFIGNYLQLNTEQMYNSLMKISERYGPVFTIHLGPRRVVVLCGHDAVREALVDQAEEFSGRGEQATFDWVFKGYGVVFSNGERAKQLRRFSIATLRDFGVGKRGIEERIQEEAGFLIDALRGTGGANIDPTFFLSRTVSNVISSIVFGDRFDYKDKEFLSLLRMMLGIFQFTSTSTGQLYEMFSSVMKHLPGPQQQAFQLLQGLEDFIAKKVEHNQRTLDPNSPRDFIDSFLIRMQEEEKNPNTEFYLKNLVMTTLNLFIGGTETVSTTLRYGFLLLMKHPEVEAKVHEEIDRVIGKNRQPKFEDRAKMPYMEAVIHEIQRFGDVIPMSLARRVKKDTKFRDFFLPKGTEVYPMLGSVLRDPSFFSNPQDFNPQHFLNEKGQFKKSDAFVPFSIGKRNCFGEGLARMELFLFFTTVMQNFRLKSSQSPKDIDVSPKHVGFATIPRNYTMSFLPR

[7] = Drug metabolism in rat liver microsomes assessed as 5-Hydroxymethyl-1-phenyl-1H-pyridine-2-one formation at 50 uM incubated for 45 mins in presence of NADPH and glutathione by LC-MS/MS analysis; format: ADME, Microsome; conditions: 0.75 h
Hepatocyte = assay: Toxicity in rat primary hepatocytes at 800 uM; format: cell-based
Cytochrome P450 3A5 [8] = target: T2, Cytochrome P450 3A5; assay: Drug metabolism assessed as human recombinant CYP3A5-mediated 5-methylene-1-phenyl-pyridin-1-ium-2-one formation at 50 uM incubated for 45 mins in presence of NADPH and glutathione by LC-MS/MS analysis; format: ADME; conditions: recombinant enzyme, 0.75 h
[9] = Toxicity in rat assessed as induction of liver injury at 150 to 200 mg/kg, ip; format: organism-based; conditions: in vivo
[10] = Drug metabolism in rat liver microsomes assessed as Retention time of GSH metabolite at 50 uM incubated for 45 mins in presence of NADPH and glutathione by LC-MS/MS analysis; format: ADME, Microsome; conditions: 0.75 h
[11] = Drug metabolism in rat liver assessed as formation of GSH-conjugate by measuring retention time of cysteine adduct in proteolytic protein samples at 10 to 400 mg/kg, ip measured up to 3 hrs by LC-MS/MS analysis; format: ADME, organism-based; conditions: in vivo
Cytochrome P450 3A4 [12] = target: T1, Cytochrome P450 3A4; assay: Drug metabolism assessed as human recombinant CYP3A4-mediated 5-methylene-1-phenyl-pyridin-1-ium-2-one formation at 50 uM incubated for 45 mins in presence of NADPH and glutathione by LC-MS/MS analysis; format: ADME; conditions: recombinant enzyme, 0.75 h
[13] = Drug metabolism in rat bile assessed as formation of (2R)-2-acetamido-3-[(6-oxo-1-phenyl-3-pyridyl)methylsulfanyl]propanoic acid at 100 mg/kg, ip measured after 2 hrs by LC-MS/MS analysis; format: ADME, organism-based; conditions: in vivo

O=c1ccc(CO)cn1-c1ccccc1
Retention_time [1]: 7.25 min

CC(=O)N[C@@H](CSCc1ccc(=O)n(-c2ccccc2)c1)C(=O)O
Retention_time [2]: 7.26 min

C=C1C=CC(=O)[N+](c2ccccc2)=C1
Drug uptake (Cytochrome P450 3A4 [3]): Metabolite_Detected | Drug uptake (Cytochrome P450 3A5 [4]): Metabolite_Detected

Cc1ccc(=O)n(-c2ccccc2)c1 [PIRFENIDONE]
Drug metabolism [5]: Dose-dependent effect | Drug metabolism [6]: Dose-dependent effect | Drug metabolism (Cytochrome P450 2A6): Metabolite_Detected | Drug metabolism [7]: Metabolite_Detected | Activity (Hepatocyte): Non-Toxic | Drug metabolism (Cytochrome P450 3A5 [8]): Metabolite_Detected | Activity [9]: Non-Toxic | Retention_time [10]: 6.6 min | Retention_time [11]: 6.24 min | Drug metabolism (Cytochrome P450 3A4 [12]): Metabolite_Detected | Drug metabolism [13]: Metabolite_Detected

Source: ChEMBL document CHEMBL4627408, “Metabolic Activation of Pirfenidone Mediated by Cytochrome P450s and Sulfotransferases” (J Med Chem, 2020)
